Laboratory results taken from patent US20040185430A1, “Process for evaluating the cosmetic or dermatological activity of a product and use of plant material” (priority 2002, published 2004).

Columns and labels:
Man [1] = assay: Barrier effect, insensible water loss (IWL), Dermalab, human model (inner forearm); format: in vivo; details: 4 mg/cm2 topical, T 2 hours vs T0, corrected for control region
Method: 2) To measure the moisturizing and the barrier effects, the human models (2 male volunteers and 2 female volunteers) took part in the tests and measurements under environmental conditions which were also controlled. Measurements were carried out at approximately 22° C. and a relative humidity ranging from 53% to 67%. Human beings: 4 models per product. Application to an inner region of the arm. Three regions of measurements, including a control, on the inner part of each forearm were conducted. The models were kept calm under climate-controlled measuring conditions for 15 minutes before each series of measurements. Application of each formulation over an area of 16 cm^2. Application of the formulations at the rate of 4 mg/cm^2 (search for the direction of the action and not for the performance of the product). The plant and human models and the products tested were the same as in Example 1. The IWL (insensible water loss) measurements were carried out according to the same protocol as above. IWL: Measurement with a Dermalab (vertical probe in contact with the measurement region, under minimum pressure). For the plants, a glass sheet was placed under the measurement region. 2 series of consecutive measurements of 25 values were conducted. The values are the mean of the measurements at Ti divided by those at T0 corrected for the variations in the control regions.

Carrot [2] = assay: Barrier effect, insensible water loss (IWL), Dermalab, carrot model; details: 4 mg/cm2 topical, T 2 hours vs T0, corrected for control region
Method: (§1) Measurements were carried out at approximately 22° C. and a relative humidity ranging from 53% to 67%. Fruits and vegetables: 2 samples per product, measured at intervals of 24 hours. Application to regions of 4 cm^2. A control region on each sample. Application of the formulations at the rate of 4 mg/cm^2 (search for the direction of the action and not for the performance of the product). The plant and human models and the products tested were the same as in Example 1. The IWL (insensible water loss) measurements were carried out according to the same protocol as above. IWL: Measurement with a Dermalab (vertical probe in contact with the measurement region, under minimum pressure). For the plants, a glass sheet was placed under the measurement region. 2 series of consecutive measurements of 25 values were conducted. The values are the mean of the measurements at Ti divided by those at T0 corrected for the variations in the control regions.

Ficus [3] = assay: Moisturizing effect, CM820 corneometer, Ficus leaves; details: Ficus leaf; 4 mg/cm2 topical; T 2 hours vs T0, corrected for control
Method: (§2) Measurements were carried out at approximately 22° C. and a relative humidity ranging from 53% to 67%. Plants: 2 samples per product, measured at intervals of 24 hours. Application of the formulations over the whole of the vernicose (upper) surface. One leaf per formulation+one control leaf. […] Application of the formulations at the rate of 4 mg/cm^2 (search for the direction of the action and not for the performance of the product). Moisturizing—Measurement with a CM820 corneometer of the mean value of 5 determinations. Measurements at: T0: reference value before application of the formulations. T 2 hours for the active principles (single measurement after observation of appearance of cuts on the leaves brought about by the measuring pressure of the corneometer). T 1 hour and T 4 hours for the commercial formulations. The values are the mean of the measurements at Ti divided by those at TO corrected for the variations in the control regions.

Potato, BF15 [4] = assay: Barrier effect, insensible water loss (IWL), Dermalab, potato model; details: 4 mg/cm2 topical, T 2 hours vs T0, corrected for control region
Method: as §1

Carrot [5] = assay: Moisturizing effect, CM820 corneometer, carrot model; details: 4 mg/cm2 topical, T 2 hours vs T0, corrected for control region
Method: (§3) Measurements were carried out at approximately 22° C. and a relative humidity ranging from 53% to 67%. Fruits and vegetables: 2 samples per product, measured at intervals of 24 hours. Application to regions of 4 cm^2. A control region on each sample. Application of the formulations at the rate of 4 mg/cm^2 (search for the direction of the action and not for the performance of the product). Moisturizing—Measurement with a CM820 corneometer of the mean value of 5 determinations. Measurements at: T0: reference value before application of the formulations. T 2 hours for the active principles (single measurement after observation of appearance of cuts on the leaves brought about by the measuring pressure of the corneometer). T 1 hour and T 4 hours for the commercial formulations. The values are the mean of the measurements at Ti divided by those at TO corrected for the variations in the control regions.

Potato, BF15 [6] = assay: Moisturizing effect, CM820 corneometer, potato model; details: 4 mg/cm2 topical, T 2 hours vs T0, corrected for control region
Method: as §3

Apples, Golden Delicious [7] = assay: Moisturizing effect, CM820 corneometer, apple model; details: 4 mg/cm2 topical, T 2 hours vs T0, corrected for control region
Method: as §3

Syngonium [8] = assay: Moisturizing effect, CM820 corneometer, Syngonium leaves; details: Syngonium leaf; 4 mg/cm2 topical; T 2 hours vs T0, corrected for control
Method: as §2

Spatyphillum [9] = assay: Barrier effect, insensible water loss (IWL), Dermalab, Spatyphillum leaves; details: Spatyphillum leaf; 4 mg/cm2 topical; T 2 hours vs T0, corrected for control
Method: as §1, with “Plants:” for “Fruits and vegetables:”, “Application” for “Application to regions”, “the formulations over the whole of the vernicose (upper) surface. One leaf per formulation+one” for “4 cm^2. A”, “leaf. […]” for “region on each sample.”

Spatyphillum [10] = assay: Moisturizing effect, CM820 corneometer, Spatyphillum leaves; details: Spatyphillum leaf; 4 mg/cm2 topical; T 2 hours vs T0, corrected for control
Method: as §2

Ficus [11] = assay: Barrier effect, insensible water loss (IWL), Dermalab, Ficus leaves; details: Ficus leaf; 4 mg/cm2 topical; T 2 hours vs T0, corrected for control
Method: as §1, with “Plants:” for “Fruits and vegetables:”, “Application” for “Application to regions”, “the formulations over the whole of the vernicose (upper) surface. One leaf per formulation+one” for “4 cm^2. A”, “leaf. […]” for “region on each sample.”

Syngonium [12] = assay: Barrier effect, insensible water loss (IWL), Dermalab, Syngonium leaves; details: Syngonium leaf; 4 mg/cm2 topical; T 2 hours vs T0, corrected for control
Method: as §1, with “Plants:” for “Fruits and vegetables:”, “Application” for “Application to regions”, “the formulations over the whole of the vernicose (upper) surface. One leaf per formulation+one” for “4 cm^2. A”, “leaf. […]” for “region on each sample.”

Man [13] = assay: Moisturizing effect, CM820 corneometer, human model (inner forearm); format: in vivo; details: 4 mg/cm2 topical, T 2 hours vs T0, corrected for control region
Method: 2) To measure the moisturizing and the barrier effects, the human models (2 male volunteers and 2 female volunteers) took part in the tests and measurements under environmental conditions which were also controlled. Measurements were carried out at approximately 22° C. and a relative humidity ranging from 53% to 67%. Human beings: 4 models per product. Application to an inner region of the arm. Three regions of measurements, including a control, on the inner part of each forearm were conducted. The models were kept calm under climate-controlled measuring conditions for 15 minutes before each series of measurements. Application of each formulation over an area of 16 cm^2. Application of the formulations at the rate of 4 mg/cm^2 (search for the direction of the action and not for the performance of the product). Moisturizing—Measurement with a CM820 corneometer of the mean value of 5 determinations. Measurements at: T0: reference value before application of the formulations. T 2 hours for the active principles (single measurement after observation of appearance of cuts on the leaves brought about by the measuring pressure of the corneometer). T 1 hour and T 4 hours for the commercial formulations. The values are the mean of the measurements at Ti divided by those at TO corrected for the variations in the control regions.

Apples, Golden Delicious [14] = assay: Barrier effect, insensible water loss (IWL), Dermalab, apple model; details: 4 mg/cm2 topical, T 2 hours vs T0, corrected for control region
Method: as §1

Structure (SMILES) | Variation T 2 hours/T0 IWL (Man [1]) [%] | Variation T 2 hours/T0 IWL (Carrot [2]) [%] | Variation T 2 hours/T0 Corneo (Ficus [3]) [%] | Variation T 2 hours/T0 IWL (Potato, BF15 [4]) [%] | Variation T 2 hours/T0 Corneo (Carrot [5]) [%] | Variation T 2 hours/T0 Corneo (Potato, BF15 [6]) [%] | Variation T 2 hours/T0 Corneo (Apples, Golden Delicious [7]) [%] | Variation T 2 hours/T0 Corneo (Syngonium [8]) [%] | Variation T 2 hours/T0 IWL (Spatyphillum [9]) [%] | Variation T 2 hours/T0 Corneo (Spatyphillum [10]) [%] | Variation T 2 hours/T0 IWL (Ficus [11]) [%] | Variation T 2 hours/T0 IWL (Syngonium [12]) [%] | Variation T 2 hours/T0 Corneo (Man [13]) [%] | Variation T 2 hours/T0 IWL (Apples, Golden Delicious [14]) [%]
OCC(O)CO [Glycerol] | 55 | 1 | 47 | 188 | 62 | 69 | 16 | 38 | 14 | 52 | 183 | 40 | 22 | 
CCCCCCCCCCCCOP(=O)(O)O [Surfactant, Lauryl phosphate] | 19 | 2 | 20 | 48 | 271 | 1144 | 2 | 48 | 13 | 30 |  | 104 | 5 | 0
